Measurements reported in patent US6642392B1 (priority 1997, dated 2003).
Like-named read-outs stand apart in the source and are kept apart here.

Key:
Type in all cases: in vivo
[1] = tested on: Puccinia recondita; assay: Test B: wheat leaf rust, preventive spray on wheat seedlings; details: for Test B disease control rating: wheat leaf rust; for Test B disease control rating (100 = 100% disease control, 0 = no disease control): wheat seedlings sprayed to run-off, inoculated the following day, rating relative to controls, unmarked compounds (standard test rate)
Experimental: (§1) The resulting test suspensions were then used in the following tests. […]
(§2) The test suspension was sprayed to the point of run-off on wheat seedlings. The following day the seedlings were inoculated with a spore suspension of Puccinia recondita (the causal agent of wheat leaf rust) and incubated in a saturated atmosphere at 20° C. for 24 h, and then moved to a growth chamber at 20° C. for 6 days, after which disease ratings were made.
(§3) Results for Tests A-E are given in Table A. In the table, a rating of 100 indicates 100% disease control and a rating of 0 indicates no disease control (relative to the controls). A dash (-) indicates no test results. ND indicates disease control not determined due to phytotoxicity.

[2] = tested on: Pyricularia oryzae; details: for Test C disease control rating: rice blast; for Test C disease control rating (100 = 100% disease control, 0 = no disease control): rice seedlings sprayed to run-off, inoculated the following day, rating relative to controls, unmarked compounds (standard test rate)
[3] = tested on: Eiysiphe graminis f. sp. tritici; assay: Test A: wheat powdery mildew, preventive spray on wheat seedlings; details: for Test A disease control rating: wheat powdery mildew; for Test A disease control rating (100 = 100% disease control, 0 = no disease control): wheat seedlings sprayed to run-off, inoculated the following day, rating relative to controls, unmarked compounds (standard test rate)
Experimental: as §1
The test suspension was sprayed to the point of run-off on wheat seedlings. The following day the seedlings were inoculated with a spore dust of Eiysiphe graminis f. sp. tritici, (the causal agent of wheat powdery mildew) and incubated in a growth chamber at 20° C. for 7 days, after which disease ratings were made.
as §3

[4] = tested on: Botrytis cinerea; assay: Test E: gray mold, preventive spray on cucumber seedlings; details: for Test E disease control rating: gray mold on cucumber; for Test E disease control rating (100 = 100% disease control, 0 = no disease control): cucumber seedlings sprayed to run-off, inoculated the following day, rating relative to controls, unmarked compounds (standard test rate)
Experimental: The resulting test suspensions were then used in the following tests. Spraying these 200 ppm test suspensions to the point of run-off on the test plants is the equivalent of a rate of 500 g/ha.
as §2, with “cucumber” for “wheat”, “Botrytis cinerea” for “Puccinia recondita”, “gray mold on many crops)” for “wheat leaf rust)”, “48” for “24”, “and” for “and then”, “5” for “6”
as §3

[5] = tested on: Phytophthora infestans; details: for Test D disease control rating: tomato late blight; for Test D disease control rating (100 = 100% disease control, 0 = no disease control): tomato seedlings sprayed to run-off, inoculated the following day, rating relative to controls, unmarked compounds (standard test rate)
[6] = 100 = 100% disease control, 0 = no control, unmarked entries (standard test concentration)
[7] = 100 = 100% disease control, 0 = no control relative to controls, unmarked entries (standard test concentration)

| SMILES | Test B disease control rating [1, 6] [%] | Test C disease control rating [2, 6] [%] | Test A disease control rating [3, 7] [%] | Test E disease control rating [4, 6] [%] | Test D disease control rating [5, 6] [%] | Test B disease control rating (100 = 100% disease control, 0 = no disease control) [1] [%] | Test C disease control rating (100 = 100% disease control, 0 = no disease control) [2] [%] | Test A disease control rating (100 = 100% disease control, 0 = no disease control) [3] [%] | Test E disease control rating (100 = 100% disease control, 0 = no disease control) [4] [%] | Test D disease control rating (100 = 100% disease control, 0 = no disease control) [5] [%] | further results |
| --- | --- | --- | --- | --- | --- | --- | --- | --- | --- | --- | --- |
| C[C@H](COc1ccc(F)cc1Cl)NC(=O)C(C#N)C(C)(C)C (single isomer, unassigned) [37a] | 68 | 100 | 62 | 0 | 68 | – | – | – | – | – | – |
| CCc1cccc(OCC(C)NC(=O)C(C#N)C(C)(C)C)c1 (mixture of isomers) [compound 177] | 0 | 94 | 62 | 6 | 35 | – | – | – | – | – | – |
| C=CC(C)(C)C(C#N)C(=O)NC(C)COc1cc(F)ccc1OC(F)F (mixture of isomers) [compound 294] | – | – | – | – | – | 0 | 99 | 0 | 0 | 24 | – |
| CC(C)(C)C(C#N)C(=O)NC/C=C/c1ccc(F)cc1F (racemic) [compound 273] | – | – | – | – | – | 0 | 53 | 86 | 0 | 23 | – |
| CC(COc1cccc(Cl)c1C#N)NC(=O)C(C#N)C(C)(C)C (mixture of isomers) [compound 42] | 0 | 53 | 0 | 0 | 2 | – | – | – | – | – | – |
| CCCC(C#N)C(=O)NC(C)C(Oc1ccccc1C#N)c1ccccc1 (mixture of isomers) [compound 288] | – | – | – | – | – | 0 | 86 | 33 | 0 | 0 | – |
| CCC1(C(=O)NCC=Cc2cccc(F)c2)C(C)C1(Cl)Cl (stereo not drawn) [compound 264] | – | – | – | – | – | 0 | 90 | 0 | 94 | 54 | – |
| C=CC(C)(C)C(C#N)C(=O)N[C@H](C)COc1cc(Cl)ccc1Cl (single isomer, unassigned) [215a] | – | – | – | – | – | 0 | 99 | 63 | 0 | 45 | – |
| CC(COc1ccccc1Br)NC(=O)C1(C)CC1(Cl)Cl (mixture of isomers) [compound 313] | – | – | – | – | – | 0 | 26 | 0 | 47 | 32 | – |
| CC(COc1ccccc1F)NC(=O)C1(C)CC1(Cl)Cl (mixture of isomers) [compound 315] | – | – | – | – | – | 99 | 51 | 60 | 0 | 16 | – |
| C#CC(C)(C)C(C#N)C(=O)NC(C)COc1cc(F)ccc1F (mixture of isomers) [compound 211] | 0 | 100 | 63 | 0 | 76 | – | – | – | – | – | – |
| CC(COc1cccc(I)c1C#N)NC(=O)C(C#N)C(C)C(C)(C)C (mixture of isomers) [compound 65] | 0 | 0 | 0 | 0 | 2 | – | – | – | – | – | – |
| CCC1(C(=O)NC(C)C=Cc2ccccc2)C(C)C1(Cl)Cl (mixture of isomers) [compound 263] | – | – | – | – | – | 0 | 86 | 86 | 0 | 33 | – |
| CCC1(C(=O)NC(C)COc2cc(C)ccc2Cl)C(C)C1(Cl)Cl (stereo not drawn) [compound 127] | – | – | – | – | – | – | – | – | – | – | Test B disease control rating ([1]; tested at 40 ppm): 0%; Test C disease control rating ([2]; tested at 40 ppm): 94%; Test A disease control rating ([3]; tested at 40 ppm): 0%; Test E disease control rating ([4]; tested at 40 ppm): 0%; Test D disease control rating ([5]; tested at 40 ppm): 19% |
| CC(COc1cccc(Cl)c1)NC(=O)C(C#N)C(C)(C)C (single isomer, unassigned) [6c] | 0 | 97 | 0 | 0 | 9 | – | – | – | – | – | – |
| CC(C=Cc1cc(F)ccc1F)NC(=O)C(C#N)C(C)(C)C (single isomer, unassigned) [229b] | – | – | – | – | – | 0 | 100 | 0 | 95 | 25 | – |
| CC(COc1cc(Cl)ccc1Cl)NC(=O)C(C#N)C(C)C(C)(C)C (mixture of isomers) [compound 62] | – | – | – | – | – | – | – | – | – | – | Test B disease control rating ([1]; tested at 40 ppm): 0%; Test C disease control rating ([2]; tested at 40 ppm): 52%; Test A disease control rating ([3]; tested at 40 ppm): 74%; Test E disease control rating ([4]; tested at 40 ppm): 0%; Test D disease control rating ([5]; tested at 40 ppm): 0% |
| CCC1(C(=O)NCCCn2c(Cl)cc(Cl)c2Cl)C(C)C1(Cl)Cl (stereo not drawn) [compound 148] | 0 | 74 | 0 | 0 | 0 | – | – | – | – | – | – |
| CC(COc1c(F)cccc1F)NC(=O)C(C#N)C(C)(C)C (mixture of isomers) [29b] | 0 | 100 | 0 | 0 | 23 | – | – | – | – | – | – |
| C[C@H](COc1cc(F)c(F)cc1F)NC(=O)C(C#N)C(C)(C)C (single isomer, unassigned) [188b] | 0 | 100 | 0 | 45 | 35 | – | – | – | – | – | – |
| CCC1(C(=O)NC(C)COc2ccc(Cl)c(F)c2)C(C)C1(Cl)Cl (stereo not drawn) [compound 231] | – | – | – | – | – | 0 | 97 | 0 | 93 | 0 | – |
| CC(COc1cc(F)cc(F)c1C#N)NC(=O)C(C#N)C(C)C(C)(C)C (mixture of isomers) [compound 69] | 0 | 53 | 0 | 0 | 2 | – | – | – | – | – | – |
| C=CC(C)(CC)C(C#N)C(=O)NC(C)COc1cc(F)ccc1F (mixture of isomers) [compound 296] | – | – | – | – | – | 0 | 100 | 0 | 0 | 24 | – |
| CC(COc1ccccc1Cl)NC(=O)C(C#N)C(C)C(C)(C)C (mixture of isomers) [compound 58] | – | – | – | – | – | – | – | – | – | – | Test B disease control rating ([1]; tested at 40 ppm): 0%; Test C disease control rating ([2]; tested at 40 ppm): 52%; Test A disease control rating ([3]; tested at 40 ppm): 57%; Test E disease control rating ([4]; tested at 40 ppm): 0%; Test D disease control rating ([5]; tested at 40 ppm): 0% |
